According to patent US9162975B2, “Phenyl carbamate compounds for use in alleviating or treating pain” (Bio-Pharm Solutions Co., Ltd., priority 2011, dated 2015):

Tests used:
ICR mice = test: Writhing test (acetic acid); assay type: in vivo; details: Mus musculus, po, 1 h
Protocol: To examine the pain relief effect of the phenyl carbamate compounds, a writhing test was conducted in general pain animal model referring to Fischer, L. G. et al. (2008).
ICR mice (male, 24-28 g; Orient Bio, Korea) were habituated before test in test room for 1 hour Animals were fasted 2 hr, before administration of compounds. Each of Compound 1, 2, 3, 4, 5, 63, 65, and 67 was orally administered at the dose of 20 mg/kg, 10 ul/g, bw (n=3˜5/group). All compounds were dissolved in a vehicle of 30% (v/v) PEG 400 or 20% (v/v) Tween 80. The control group was treated the vehicle without compounds.
One hour after the administration of Compounds, 0.6% acetic acid at the dose of 10 ul/g, bw was injected into the mice. Animals were habituated in the cage for 5 min 5 min after habituation, the number of writhes (abdominal constriction) for 15 min was counted referring to Korzeniewska-Rybicka, I. et al. (1998) and compared with that of a control.

[1] = tested on: CFA-induced pain model in rats; test: Antiallodynic activity on Complete Freund's Adjuvant (CFA)-induced inflammatory pain model, von Frey; assay type: in vivo, Sprague-Dawley rats; details: 0.5 hr, paw withdrawal threshold relative to sham
Protocol: (§1) Male, Sprague-Dawley rats (200-220 g, Nara Bio, Korea) were habituated for 1 week before surgery and allowed free access to food and water throughout the experimentation. Room temperature and humidity were maintained at 24±2° C. and 50±10%, respectively.
CFA-induced inflammatory pain was induced by the procedure of Nagakura et al. (2003) and Gregory P. et al. (2010) with minor modifications. CFA (sigma, USA) was injected in the right plantar with a 100 ul volume under gaseous anesthesia with isoflurane a 4:4 flow ratio of NO2. Sham controls were injected with 100 ul of saline and vehicle controls were identical to CFA infusion model, except for administration of vehicles.
(§2) Tactile sensitivity (Mechanical allodynia) was evaluated using von Frey monofilaments before and after treatment, and animals were used withdrawal threshold value was less than 4 g. One week after surgery, CFA-infused animals (n=4˜6), sham-operated animals (n=12), and vehicle-operated animals (n=17) were tested for tactile sensitivity with von Frey monofilaments 3 trials in each animal. All Animals were placed in a stainless steel mashed chamber and habituated for 30 min in the test box. The tactile sensitivity for ipsilateral hind paw was measured using the up-and-down method (Dixon, 1980) with seven von Frey monofilaments (0.4, 1, 2, 4, 6, 8, and 15 g) to 3 trials. […] The 50% paw withdrawal threshold for each paw was calculated using the following formula: [Xth] log=[vFr] log+ky where [vFr] is the force of the last von Frey used, k=0.2249 which is the average interval (in log units) between the von Frey monofilaments, and y is a value that depends upon the pattern of withdrawal responses (Dixon, 1980).
Antiallodynic effect of compound of Example 1 was evaluated at the dose of 10, 30 and 60 mg/kg (n=4˜6), intraperitoneally administrated in a volume of 5 ul/g bw in a vehicle of 30% (v/v) PEG. […]
The relative values compared to the sham (% control) were calculated and shown in Table 7 and FIG. 7, which show an antiallodynic effect of Compound 1 on CFA-induced pain model in rats.

[2] = tested on: STZ-induced pain model in rats; test: Antiallodynic activity on streptozotocin (STZ)-induced diabetic pain model, von Frey; assay type: in vivo, Sprague-Dawley rats; details: 0.5 hr, paw withdrawal threshold relative to sham
Protocol: as §1
STZ-induced diabetic pain model was established with a modified method of Rakieten et al. (1963) and Bertrand Aubel et al. (2004). All animals were fasted 4 to 6 hr prior to STZ injection. STZ (sigma, USA) was dissolved in 20 mM sodium citrate buffer, pH 5.5 (sigma, USA) and intraperitoneally injected at 75 mg/kg, 4 ul/g, bw into the rats Sham controls were injected with same volume of 20 mM sodium citrate buffer, pH 5.5 and vehicle controls were identical to STZ model, except for administration of vehicles. Rats were supplied with 10% sucrose water for 2 days against sudden hypoglycemia. 3 days later, the induction of diabetes was checked by measurement of tail vein blood glucose levels with a blood glucose meter. (LifeScan OneTouch Ultra, USA). If blood glucose was not >300 mg/dl by 72 hr, the rat was excluded from the diabetic group.
as §2, with “treatment of compound example 1” for “treatment,”, “One week after surgery, CFA-infused animals (n=4˜6), sham-operated animals (n=12), and vehicle-operated animals (n=17) were tested for tactile sensitivity with von Frey monofilaments 3 trials in each animal. All Animals were placed in a stainless steel mashed chamber and habituated for 30 min in the test box.” left out
Antiallodynic effect of compound of Example 1 was evaluated at the dose of 10, 30 and 60 mg/kg (n=6), intraperitoneally administrated in a volume of 5 ul/g, bw in a vehicle of 30% (v/v) PEG. […]

[3] = dose 10 mg/kg intraperitoneally
[4] = dose 30 mg/kg intraperitoneally
[5] = dose 60 mg/kg intraperitoneally

For C[C@H](OC(N)=O)[C@@H](O)c1ccccc1Cl [Example 1, 1-(2-chlorophenyl)-(S)-1-hydroxypropyl-(S)-2-carbamate], the ED50 (ICR mice) was 14.1 mg/kg, the “% Control (CFA-induced pain model)” value [1, 3] was 12.5% and the “% Control (CFA-induced pain model)” value [1, 4] was 40.0%. The “% Control (CFA-induced pain model)” value [1, 5] was 73.7%, the “% Control (STZ-induced pain model)” value [2, 3] was 33.9% and the “% Control (STZ-induced pain model)” value [2, 4] was 49.9%. The “% Control (STZ-induced pain model)” value [2, 5] was 73.7%.
